# In PubChem BioAssay (NCI):
#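 Interpolation was linear, between the two tested concentrations surrounding the appropriate level; five concentrations were tested over 48 hours in 96-well plates. At the GI50, growth is halved. TGI: concentration producing complete growth inhibition.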
# Tests used:
# Assay in all cases: inhibition of tumour cell growth, NCI panel, 48 h
# 786-0 renal = tested on: 786-0 renal
# A498 renal = tested on: A498 renal
# A549 NSCLC = tested on: A549 NSCLC
# ACHN renal = tested on: ACHN renal
# BT-549 breast = tested on: BT-549 breast
# CAKI-1 renal = tested on: CAKI-1 renal
# CCRF-CEM leukemia = tested on: CCRF-CEM leukemia
# COLO 205 colon = tested on: COLO 205 colon
# DU-145 prostate = tested on: DU-145 prostate
# EKVX NSCLC = tested on: EKVX NSCLC
# HCC-2998 colon = tested on: HCC-2998 colon
# HCT-116 colon = tested on: HCT-116 colon
# HCT-15 colon = tested on: HCT-15 colon
# HL-60(TB) leukemia = tested on: HL-60(TB) leukemia
# HOP-62 NSCLC = tested on: HOP-62 NSCLC
# HOP-92 NSCLC = tested on: HOP-92 NSCLC
# HS 578T breast = tested on: HS 578T breast
# HT29 colon = tested on: HT29 colon
# IGROV1 ovarian = tested on: IGROV1 ovarian
# K-562 leukemia = tested on: K-562 leukemia
# KM12 colon = tested on: KM12 colon
# LOX IMVI melanoma = tested on: LOX IMVI melanoma
# M14 melanoma = tested on: M14 melanoma
# MALME-3M melanoma = tested on: MALME-3M melanoma
# MCF7 breast = tested on: MCF7 breast
# MDA-MB-231 breast = tested on: MDA-MB-231 breast
# MOLT-4 leukemia = tested on: MOLT-4 leukemia
# NCI-H226 lung = tested on: NCI-H226 lung
# NCI-H23 lung = tested on: NCI-H23 lung
# NCI-H460 lung = tested on: NCI-H460 lung
# NCI-H522 lung = tested on: NCI-H522 lung
# NCI/ADR-RES ovarian = tested on: NCI/ADR-RES ovarian
# OVCAR-3 ovarian = tested on: OVCAR-3 ovarian
# OVCAR-4 ovarian = tested on: OVCAR-4 ovarian
# OVCAR-5 ovarian = tested on: OVCAR-5 ovarian
# OVCAR-8 ovarian = tested on: OVCAR-8 ovarian
# PC-3 prostate = tested on: PC-3 prostate
# RPMI-8226 leukemia = tested on: RPMI-8226 leukemia
# RXF 393 renal = tested on: RXF 393 renal
# SF-268 CNS = tested on: SF-268 CNS
# SF-295 CNS = tested on: SF-295 CNS
# SF-539 CNS = tested on: SF-539 CNS
# SK-MEL-2 melanoma = tested on: SK-MEL-2 melanoma
# SK-MEL-28 melanoma = tested on: SK-MEL-28 melanoma
# SK-MEL-5 melanoma = tested on: SK-MEL-5 melanoma
# SK-OV-3 ovarian = tested on: SK-OV-3 ovarian
# SN12C renal = tested on: SN12C renal
# SNB-19 CNS = tested on: SNB-19 CNS
# SNB-75 CNS = tested on: SNB-75 CNS
# SR leukemia = tested on: SR leukemia
# SW-620 colon = tested on: SW-620 colon
# T-47D breast = tested on: T-47D breast
# TK-10 renal = tested on: TK-10 renal
# U251 CNS = tested on: U251 CNS
# UACC-257 melanoma = tested on: UACC-257 melanoma
# UACC-62 melanoma = tested on: UACC-62 melanoma
# UO-31 renal = tested on: UO-31 renal
# MDA-MB-435 = tested on: MDA-MB-435
compound,measurement,setting,value
COc1ccc(-c2cc(=O)[nH]c3c(OC)c4ccccc4c(OC)c23)cc1,GI50,786-0 renal,0.532 µM
same,TGI,786-0 renal,> 100 µM
same,GI50,A498 renal,0.145 µM
same,GI50,A549 NSCLC,0.708 µM
same,TGI,A549 NSCLC,> 100 µM
same,GI50,ACHN renal,0.663 µM
same,TGI,ACHN renal,> 100 µM
same,GI50,BT-549 breast,2.33 µM
same,TGI,BT-549 breast,> 100 µM
same,GI50,CAKI-1 renal,0.376 µM
same,TGI,CAKI-1 renal,> 100 µM
same,GI50,CCRF-CEM leukemia,0.401 µM
same,TGI,CCRF-CEM leukemia,> 100 µM
same,GI50,COLO 205 colon,0.424 µM
same,TGI,COLO 205 colon,3.52 µM
same,GI50,DU-145 prostate,0.671 µM
same,TGI,DU-145 prostate,> 100 µM
same,GI50,EKVX NSCLC,2.87 µM
same,TGI,EKVX NSCLC,> 100 µM
same,GI50,HCC-2998 colon,1.28 µM
same,TGI,HCC-2998 colon,> 23.1 µM
same,GI50,HCT-116 colon,0.38 µM
same,TGI,HCT-116 colon,> 100 µM
same,GI50,HCT-15 colon,0.419 µM
same,TGI,HCT-15 colon,> 100 µM
same,GI50,HL-60(TB) leukemia,0.276 µM
same,GI50,HOP-62 NSCLC,1.47 µM
same,TGI,HOP-62 NSCLC,> 100 µM
same,GI50,HOP-92 NSCLC,0.409 µM
same,TGI,HOP-92 NSCLC,> 100 µM
same,GI50,HS 578T breast,0.345 µM
same,GI50,HT29 colon,0.342 µM
same,GI50,IGROV1 ovarian,0.47 µM
same,TGI,IGROV1 ovarian,> 91.5 µM
same,GI50,K-562 leukemia,0.346 µM
same,TGI,K-562 leukemia,> 100 µM
same,GI50,KM12 colon,0.323 µM
same,TGI,KM12 colon,> 100 µM
same,GI50,LOX IMVI melanoma,0.655 µM
same,TGI,LOX IMVI melanoma,> 100 µM
same,GI50,M14 melanoma,0.388 µM
same,GI50,MALME-3M melanoma,2.99 µM
same,TGI,MALME-3M melanoma,> 100 µM
same,GI50,MCF7 breast,0.357 µM
same,TGI,MCF7 breast,> 100 µM
same,GI50,MDA-MB-231 breast,1.44 µM
same,TGI,MDA-MB-231 breast,> 100 µM
same,GI50,MOLT-4 leukemia,0.914 µM
same,TGI,MOLT-4 leukemia,> 100 µM
same,GI50,NCI-H226 lung,> 20 µM
same,TGI,NCI-H226 lung,> 100 µM
same,GI50,NCI-H23 lung,0.817 µM
same,TGI,NCI-H23 lung,> 100 µM
same,GI50,NCI-H460 lung,0.379 µM
same,GI50,NCI-H522 lung,0.284 µM
same,TGI,NCI-H522 lung,3.26 µM
same,GI50,NCI/ADR-RES ovarian,0.291 µM
same,GI50,OVCAR-3 ovarian,0.165 µM
same,TGI,OVCAR-3 ovarian,0.713 µM
same,GI50,OVCAR-4 ovarian,1.21 µM
same,TGI,OVCAR-4 ovarian,> 100 µM
same,GI50,OVCAR-5 ovarian,3.58 µM
same,TGI,OVCAR-5 ovarian,> 100 µM
same,GI50,OVCAR-8 ovarian,1.29 µM
same,TGI,OVCAR-8 ovarian,> 100 µM
same,GI50,PC-3 prostate,0.382 µM
same,TGI,PC-3 prostate,> 100 µM
same,GI50,RPMI-8226 leukemia,0.289 µM
same,TGI,RPMI-8226 leukemia,> 20.2 µM
same,GI50,RXF 393 renal,0.409 µM
same,TGI,RXF 393 renal,> 19.9 µM
same,GI50,SF-268 CNS,0.552 µM
same,TGI,SF-268 CNS,> 100 µM
same,GI50,SF-295 CNS,0.272 µM
same,GI50,SF-539 CNS,0.393 µM
same,GI50,SK-MEL-2 melanoma,0.486 µM
same,TGI,SK-MEL-2 melanoma,> 100 µM
same,GI50,SK-MEL-28 melanoma,3.45 µM
same,TGI,SK-MEL-28 melanoma,> 100 µM
same,GI50,SK-MEL-5 melanoma,0.398 µM
same,TGI,SK-MEL-5 melanoma,> 100 µM
same,GI50,SK-OV-3 ovarian,0.606 µM
same,TGI,SK-OV-3 ovarian,> 100 µM
same,GI50,SN12C renal,0.612 µM
same,TGI,SN12C renal,> 100 µM
same,GI50,SNB-19 CNS,2.06 µM
same,TGI,SNB-19 CNS,> 100 µM
same,GI50,SNB-75 CNS,0.246 µM
same,TGI,SNB-75 CNS,1.68 µM
same,GI50,SR leukemia,0.431 µM
same,TGI,SR leukemia,> 100 µM
same,GI50,SW-620 colon,0.418 µM
same,TGI,SW-620 colon,> 100 µM
same,GI50,T-47D breast,0.356 µM
same,TGI,T-47D breast,> 100 µM
same,GI50,TK-10 renal,> 42.4 µM
same,TGI,TK-10 renal,> 100 µM
same,GI50,U251 CNS,0.419 µM
same,TGI,U251 CNS,> 100 µM
same,TGI,UACC-257 melanoma,> 100 µM
same,GI50,UACC-62 melanoma,0.396 µM
same,TGI,UACC-62 melanoma,> 100 µM
same,GI50,UO-31 renal,0.725 µM
same,TGI,UO-31 renal,> 100 µM
CCOC(=O)c1cccn1S(=O)(=O)c1cc(Cl)ccc1NC(=O)CC,TGI,786-0 renal,> 100 µM
same,TGI,A498 renal,> 100 µM
same,TGI,A549 NSCLC,> 100 µM
same,TGI,ACHN renal,> 100 µM
same,TGI,BT-549 breast,> 100 µM
same,TGI,CAKI-1 renal,> 100 µM
same,TGI,CCRF-CEM leukemia,> 100 µM
same,TGI,COLO 205 colon,65.4 µM
same,TGI,DU-145 prostate,> 100 µM
same,TGI,EKVX NSCLC,> 100 µM
same,TGI,HCT-116 colon,> 100 µM
same,TGI,HCT-15 colon,> 100 µM
same,TGI,HL-60(TB) leukemia,> 100 µM
same,TGI,HOP-62 NSCLC,> 100 µM
same,TGI,HOP-92 NSCLC,> 100 µM
same,TGI,HS 578T breast,> 100 µM
same,TGI,IGROV1 ovarian,> 100 µM
same,TGI,K-562 leukemia,> 100 µM
same,TGI,KM12 colon,> 100 µM
same,TGI,LOX IMVI melanoma,> 100 µM
same,TGI,MCF7 breast,> 100 µM
same,TGI,MDA-MB-231 breast,> 100 µM
same,TGI,MDA-MB-435,> 100 µM
same,TGI,MOLT-4 leukemia,> 100 µM
same,TGI,NCI-H460 lung,> 100 µM
same,TGI,NCI-H522 lung,63.1 µM
same,TGI,OVCAR-3 ovarian,> 100 µM
same,TGI,OVCAR-4 ovarian,> 100 µM
same,TGI,OVCAR-5 ovarian,> 100 µM
same,TGI,PC-3 prostate,> 100 µM
same,TGI,RPMI-8226 leukemia,> 100 µM
same,TGI,RXF 393 renal,> 100 µM
same,TGI,SF-295 CNS,> 100 µM
same,TGI,SF-539 CNS,> 100 µM
same,TGI,SK-MEL-2 melanoma,> 100 µM
same,TGI,SK-MEL-28 melanoma,> 100 µM
same,TGI,SK-MEL-5 melanoma,> 100 µM
same,TGI,SK-OV-3 ovarian,> 100 µM
same,TGI,SN12C renal,> 100 µM
same,TGI,SNB-19 CNS,> 100 µM
same,TGI,SNB-75 CNS,> 100 µM
same,TGI,SW-620 colon,> 100 µM
same,TGI,T-47D breast,> 100 µM
same,TGI,TK-10 renal,> 100 µM
same,TGI,U251 CNS,> 100 µM
same,TGI,UACC-257 melanoma,> 100 µM
same,TGI,UACC-62 melanoma,> 100 µM
same,TGI,UO-31 renal,54 µM
C1=NCCN2CCN(CCN=Cc3ccc(cc3)OCc3cccc(n3)COc3ccc1cc3)CC2,TGI,786-0 renal,> 50 µM
same,TGI,A498 renal,> 50 µM
same,TGI,A549 NSCLC,> 50 µM
same,TGI,ACHN renal,> 50 µM
same,TGI,BT-549 breast,> 50 µM
same,TGI,CCRF-CEM leukemia,> 50 µM
same,TGI,COLO 205 colon,> 50 µM
same,TGI,DU-145 prostate,> 50 µM
same,TGI,EKVX NSCLC,> 50 µM
same,TGI,HCT-116 colon,> 50 µM
same,TGI,HCT-15 colon,> 50 µM
same,TGI,HL-60(TB) leukemia,> 50 µM
same,TGI,HOP-62 NSCLC,> 50 µM
same,TGI,HOP-92 NSCLC,> 50 µM
same,TGI,HS 578T breast,> 50 µM
same,TGI,HT29 colon,> 50 µM
same,TGI,IGROV1 ovarian,> 50 µM
same,TGI,K-562 leukemia,> 50 µM
same,TGI,KM12 colon,> 50 µM
same,TGI,M14 melanoma,> 50 µM
same,TGI,MALME-3M melanoma,> 50 µM
same,TGI,MCF7 breast,> 50 µM
same,TGI,MDA-MB-231 breast,> 50 µM
same,TGI,MDA-MB-435,> 50 µM
same,TGI,MOLT-4 leukemia,> 50 µM
same,TGI,NCI-H226 lung,> 50 µM
same,TGI,NCI-H23 lung,> 50 µM
same,TGI,NCI-H460 lung,> 50 µM
same,TGI,NCI-H522 lung,> 50 µM
same,TGI,NCI/ADR-RES ovarian,> 50 µM
same,TGI,OVCAR-3 ovarian,> 50 µM
same,TGI,OVCAR-4 ovarian,> 50 µM
same,TGI,OVCAR-5 ovarian,> 50 µM
same,TGI,OVCAR-8 ovarian,> 50 µM
same,TGI,PC-3 prostate,> 50 µM
same,TGI,RPMI-8226 leukemia,> 50 µM
same,TGI,RXF 393 renal,> 50 µM
same,TGI,SF-268 CNS,> 50 µM
same,TGI,SF-295 CNS,> 50 µM
same,TGI,SF-539 CNS,> 50 µM
same,TGI,SK-MEL-2 melanoma,> 50 µM
same,TGI,SK-MEL-28 melanoma,> 50 µM
same,TGI,SK-OV-3 ovarian,> 50 µM
same,TGI,SN12C renal,> 50 µM
same,TGI,SNB-19 CNS,> 50 µM
same,TGI,SNB-75 CNS,> 50 µM
same,TGI,SR leukemia,> 50 µM
same,TGI,SW-620 colon,> 50 µM
same,TGI,TK-10 renal,> 50 µM
same,TGI,U251 CNS,> 50 µM
same,TGI,UACC-257 melanoma,> 50 µM
same,TGI,UACC-62 melanoma,> 50 µM
same,TGI,UO-31 renal,> 50 µM
